According to patent publication US20140303090A1, “Smac Mimetic Therapy” (TETRALOGIC PHARMACEUTICALS CORPORATION, priority 2013, published 2014):
Like-named read-outs stand apart in the source and are kept apart here.

What was measured:
GFP-cIAP1 = target: T1, GFP-cIAP1 (Homo sapiens, UniProt Q13490); experiment: GFP-cIAP1 degradation assay (loss of GFP signal, flow cytometry); type: cell-based
T1 construct: expressed in transfected cells

GFP-cIAP2 [1] = target: T2, GFP-cIAP2 (Homo sapiens, UniProt Q13489); experiment: GFP-cIAP2 degradation assay (loss of GFP signal, flow cytometry); type: cell-based; conditions: read-out: ΔGFP-cIAP2 EC50, 2 h; 2 h; A375 cells
T2 construct: expressed in transfected cells
T2 sequence (Q13489 whole entry): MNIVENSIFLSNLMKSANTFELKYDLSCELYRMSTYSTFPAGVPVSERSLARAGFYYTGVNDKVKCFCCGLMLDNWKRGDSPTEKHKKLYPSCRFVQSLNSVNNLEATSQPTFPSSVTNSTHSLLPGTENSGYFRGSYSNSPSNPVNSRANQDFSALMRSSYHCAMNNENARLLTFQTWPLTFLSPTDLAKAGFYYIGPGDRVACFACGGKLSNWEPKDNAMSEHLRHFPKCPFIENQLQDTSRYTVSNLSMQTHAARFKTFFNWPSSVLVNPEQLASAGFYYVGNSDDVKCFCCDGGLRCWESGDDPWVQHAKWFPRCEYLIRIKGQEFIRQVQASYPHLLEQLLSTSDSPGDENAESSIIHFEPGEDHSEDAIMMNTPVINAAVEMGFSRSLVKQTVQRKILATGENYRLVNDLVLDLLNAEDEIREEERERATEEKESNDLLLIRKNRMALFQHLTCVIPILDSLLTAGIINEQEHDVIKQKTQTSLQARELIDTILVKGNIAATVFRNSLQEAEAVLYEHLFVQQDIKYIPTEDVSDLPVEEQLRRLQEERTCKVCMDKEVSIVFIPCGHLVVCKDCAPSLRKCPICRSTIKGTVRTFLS
Excerpt: In this assay, treatment of GFP-cIAP-expressing melanoma cell line A375 with Smac mimetic, Compound 15, for two hours, results in degradation of cIAP-1 and cIAP-2 with concomitant loss of GFP-signal.

[2] = test system: DAP-mediated NF-κB-luc (NOD1); experiment: DAP-stimulated NF-kB luciferase reporter gene assay (NOD1 signaling) in HCT116 cells; type: cell-based, human
Description: (§1) To assay effects on XIAP E3 ubiquitin ligase activity manifested as NF-kB activation, we established both DAP- and MDP-stimulated luciferase reporter gene assays in which Smac mimetics are evaluated in cells at a single 10 μM drug concentration. Specifically, we developed stable cell lines with HCT116 cells (human colon cancer) that carry the NF-kB-luciferase reporter gene under the regulation of NF-kB promoter activation elements. The assay was carried out as follows: • 1. HCT116 (3-3) cells were cultured in white wall 96-wells plate (50,000 cells/50 μL/well) for overnight at 37° C. • 2. […] The luciferase activity in each well was measured by using Steady-Glo® Luciferase Assay System (Promega Corp.). 48 μL of luminescence detection reagent was added in each well, followed by brief agitation. The plate was left in dark for 15 minutes and then the luminescence activity was measured by using microplate reader Victor2 (PerkinElmer Life and Analytical Science, Shelton, Conn.). • 4. Calculation:
(§2) Luciferase activity in no ligand (i.e., […]) treatment wells=background (BG)
(§3) Luciferase activity in ligand only treatment wells=positive control (PC)
(§4) Luciferase activity in Smac mimetic (SM)+ligand treatment wells=Test • i) Test<PC
(§5) Inhibitory activity by SM(%)=100×[(PC−Test)/(PC−BG)] • ii) Test>PC
(§6) Activation by SM(%)=100×[(Test−BG)/(PC−BG)]

[3] = test system: MDP-mediated NF-κB-luc (NOD2); experiment: MDP-stimulated NF-kB luciferase reporter gene assay (NOD2 signaling) in HCT116 cells; type: cell-based, human
Description: as §1, §2, §3, §4, §5, §6

WT murine BMDMs = experiment: IL-1β secretion from LPS-primed WT bone marrow-derived macrophages; type: cell-based; conditions: 24 h
Excerpt: Given the heightened activity of 2 versus 1 on cIAP2, we speculated that the improved tolerability of 1 might also be associated with reduced antagonism of XIAP functional activity in this system. We thus evaluated a selection of Smac-mimetics in both LPS-primed wild-type (WT) and XIAP knockout (Xiap^−/−) murine BMDMs to assess their capacity to induce the secretion of IL-1β following treatment with Smac-mimetic (FIG. 4).
WT and Xiap^−/− BMDMs were primed with LPS±the indicated concentration of Smac-mimetics for 24 h. WT BMDM results are presented as the mean±SEM (n=3 biological independent repeats). […] Total levels of IL-1β induced by Smac-mimetics in these assays varied but the trend was identical.

Xiap−/− murine BMDMs = experiment: IL-1β secretion from LPS-primed XIAP knockout bone marrow-derived macrophages; type: cell-based; conditions: 24 h
Description: We thus evaluated a selection of Smac-mimetics in both LPS-primed wild-type (WT) and XIAP knockout (Xiap^−/−) murine BMDMs to assess their capacity to induce the secretion of IL-1β following treatment with Smac-mimetic (FIG. 4).
WT and Xiap^−/− BMDMs were primed with LPS±the indicated concentration of Smac-mimetics for 24 h. WT BMDM results are presented as the mean±SEM (n=3 biological independent repeats).

Tolerability = conditions: in vivo
Excerpt: . Binding of IAP antagonists to cIAP1 proteins induces a conformational rearrangement that exposes the RING domain. Once exposed, the RING domain dimerizes and E3 ubiquitin ligase activity is activated. Using a range of assays that evaluated cIAP1 stability; NF-κB activation; cIAP1 oligomeric state; […]. Birinapant-induced loss of cIAPs correlated with inhibition of TNF-mediated NF-κB activation, caspase activation, tumor cell killing, and tumor regression. Birinapant was well-tolerated. […]. […]; (ii.) decreased affinity for XIAP BIR3; (iii.) decreased ability to inhibit XIAP-dependent NOD signaling, despite its activity in an XIAP-dependent caspase-3 activation assay; and, (iv.) decreased pro-inflammatory IL-1β secretion. […]

GFP-cIAP2 [4] = target: T2, GFP-cIAP2; experiment: GFP-cIAP2 degradation assay (loss of GFP signal, flow cytometry); type: cell-based; conditions: read-out: ΔGFP-cIAP2 EC50, 24 h
XIAP BIR3 = XIAP BIR3 (Homo sapiens, UniProt P98170); experiment: Fluorescence polarization displacement assay, XIAP BIR3
Chain of XIAP BIR3 (P98170 241-356 limits assumed): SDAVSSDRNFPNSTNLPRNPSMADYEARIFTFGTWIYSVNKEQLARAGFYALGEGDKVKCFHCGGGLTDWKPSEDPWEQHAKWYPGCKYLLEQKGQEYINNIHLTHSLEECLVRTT
Description: (§7) To establish protein-ligand binding affinity, we employed a fluorescence polarization assay. This assay monitored the displacement of an IAP binding motif (IBM)-containing peptide, Abu-RPFK(5-carboxyfluorescein)-NH2, from the Type III BIR domains of cIAP1, cIAP2, XIAP, and ML-IAP.

cIAP1 BIR3 = cIAP1 BIR3 (Homo sapiens, UniProt Q13490); experiment: Fluorescence polarization displacement assay, cIAP1 BIR3
Chain of cIAP1 BIR3 (Q13490 253-363 limits assumed): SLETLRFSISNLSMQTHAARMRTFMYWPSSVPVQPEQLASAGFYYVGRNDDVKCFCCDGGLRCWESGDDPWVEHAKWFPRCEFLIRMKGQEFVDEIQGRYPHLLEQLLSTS
Description: as §7

cIAP2 BIR3 = cIAP2 BIR3 (Homo sapiens, UniProt Q13489); experiment: Fluorescence polarization displacement assay, cIAP2 BIR3
Chain of cIAP2 BIR3 (Q13489 238-349 limits assumed): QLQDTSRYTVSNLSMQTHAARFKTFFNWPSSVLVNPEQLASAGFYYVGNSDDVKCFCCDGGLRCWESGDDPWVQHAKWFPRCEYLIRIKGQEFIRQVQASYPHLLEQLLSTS
Description: as §7

ML-IAP BIR = target: T3, ML-IAP BIR (Homo sapiens, UniProt Q96CA5); experiment: Fluorescence polarization displacement assay, ML-IAP BIR
T3 sequence (Q96CA5 63-179 limits assumed): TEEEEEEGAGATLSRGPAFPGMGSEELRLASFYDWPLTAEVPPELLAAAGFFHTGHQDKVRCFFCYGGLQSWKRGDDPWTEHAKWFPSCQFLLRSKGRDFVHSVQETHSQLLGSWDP
Description: as §7

cIAP1-BUCR [5] = target: T4, cIAP1-BUCR (Homo sapiens, UniProt Q13490); experiment: MALLS-SEC analysis of the oligomeric state of cIAP1-BUCR
T4 sequence (Q13490 260-618 limits assumed): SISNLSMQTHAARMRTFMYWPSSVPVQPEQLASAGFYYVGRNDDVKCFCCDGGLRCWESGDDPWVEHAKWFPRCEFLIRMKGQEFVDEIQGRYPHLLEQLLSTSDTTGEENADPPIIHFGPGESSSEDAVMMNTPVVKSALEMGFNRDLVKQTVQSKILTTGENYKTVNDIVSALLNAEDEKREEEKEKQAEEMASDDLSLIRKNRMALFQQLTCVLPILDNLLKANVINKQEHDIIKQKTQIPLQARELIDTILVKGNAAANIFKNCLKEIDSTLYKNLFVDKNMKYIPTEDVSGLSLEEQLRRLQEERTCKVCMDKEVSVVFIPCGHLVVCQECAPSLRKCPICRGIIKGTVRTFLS
Description: With 2 as a positive control, we used MALLS-SEC analysis to characterize the oligomeric state of cIAP1-BUCR in the presence of 1, the mono-D-Abu epimer (3), and the bis-D-Abu diastereomer (4).

cIAP1-BUCR [6] = target: T4, cIAP1-BUCR; experiment: cIAP1 auto-ubiquitylation in vitro (Ub transfer by cIAP1-BUCR)
Description: To assess the E3 ligase activity of IAP antagonist-induced cIAP1-BUCR dimers, we monitored cIAP1 auto-ubiquitylation in vitro.

cIAP1-BUCR dimer = cIAP1-BUCR dimer (Homo sapiens, UniProt Q13490); experiment: Co-immunoprecipitation of differentially-tagged cIAP1-BUCR constructs
Chain of cIAP1-BUCR dimer (Q13490 260-618 limits assumed): as above
Chain of cIAP1-BUCR dimer (Q13490 260-618 limits assumed): as above

[7] = 10 μM Smac mimetic, HCT116 cells

T1 sequence (Q13490 whole entry): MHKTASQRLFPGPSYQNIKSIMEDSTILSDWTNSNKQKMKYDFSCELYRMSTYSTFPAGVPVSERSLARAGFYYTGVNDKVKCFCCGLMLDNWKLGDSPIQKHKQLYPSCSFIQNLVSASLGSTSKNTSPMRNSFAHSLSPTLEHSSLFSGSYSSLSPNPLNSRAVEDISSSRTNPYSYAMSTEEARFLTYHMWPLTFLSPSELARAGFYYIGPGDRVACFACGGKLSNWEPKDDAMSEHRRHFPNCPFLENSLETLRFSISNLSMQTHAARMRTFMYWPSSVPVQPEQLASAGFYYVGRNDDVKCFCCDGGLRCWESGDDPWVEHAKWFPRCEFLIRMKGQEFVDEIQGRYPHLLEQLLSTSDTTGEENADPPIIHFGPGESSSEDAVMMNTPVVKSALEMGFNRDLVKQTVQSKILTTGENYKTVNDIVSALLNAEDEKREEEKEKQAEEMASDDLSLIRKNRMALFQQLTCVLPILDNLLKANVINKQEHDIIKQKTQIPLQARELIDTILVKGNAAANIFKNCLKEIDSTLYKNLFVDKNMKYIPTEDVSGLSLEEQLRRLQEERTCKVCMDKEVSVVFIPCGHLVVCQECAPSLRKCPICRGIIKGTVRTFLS

Structure (SMILES): CN[C@@H](C)C(=O)N[C@H](C(=O)N1CCC[C@H]1Cc1c(-c2ccc(-c3c(C[C@@H]4CCCN4C(=O)[C@@H](NC(=O)[C@H](C)NC)C(C)(C)C)c4ccc(F)cc4n3CCO)cc2)n(CCO)c2cc(F)ccc12)C(C)(C)C [Compound A (2), reference compound]
- DC50 (GFP-cIAP1; read-out: ΔGFP-cIAP1 EC50, 2 h, 2 h, A375 cells): 13 ± 5 nM
- DC50 (GFP-cIAP1; read-out: ΔGFP-cIAP1 EC50, 24 h, 24 h): 4 ± 2 nM
- DC50 (GFP-cIAP2 [1]): 43 ± 17 nM
- Inhibition of DAP-mediated NF-κB-luc, % Inhibition [2, 7]: 98 (+/−1) %
- Inhibition of DAP-mediated NF-KB-luc @ 2 h, % Inhibition ([2]; @ 2 h): 98 ± 1%
- Inhibition of MDP-mediated NF-κB-luc, % Inhibition [3, 7]: 99 (+/−1) %
- Inhibition of MDP-mediated NF-KB-luc @ 2 h, % Inhibition ([3]; @ 2 h): 99 ± 1%
- IL-1β secretion from LPS-primed WT BMDMs (WT murine BMDMs): capable of inducing IL-1β secretion
- IL-1β secretion in Xiap−/− BMDMs (Xiap−/− murine BMDMs): induced IL-1β secretion
- tolerability (Tolerability): poorly tolerated
- EC50 (TNF-mediated NF-κB-luc): 8 ± 2 nM
- DC50 (GFP-cIAP2 [4]): 27 ± 17 nM
- Ki (XIAP BIR3): ~1 nM
- Ki (cIAP1 BIR3): ~1 nM
- Ki (cIAP2 BIR3): ~1 nM
- Ki (ML-IAP BIR): ~1 nM
- cIAP1-BUCR dimerization (cIAP1-BUCR [5]): formation of the higher molecular weight cIAP1-BUCR dimer
- Ub transfer by cIAP1-BUCR (auto-ubiquitylation) (cIAP1-BUCR [6]): increased
- co-IP of Flag-tagged cIAP1-BUCR with mbw-tagged cIAP1-BUCR (cIAP1-BUCR dimer): allowed the co-IP
